The values below are quoted from earlier work in patent US10058559B2, “Treatment or prevention of an intestinal disease or disorder” (The United States of America, as represented by the …, priority 2014, dated 2018).

The structures appear in SMILES notation.

The target of one data set is T1, TNK1 (Homo sapiens, UniProt Q13470).
T1 sequence (Q13470 1-666): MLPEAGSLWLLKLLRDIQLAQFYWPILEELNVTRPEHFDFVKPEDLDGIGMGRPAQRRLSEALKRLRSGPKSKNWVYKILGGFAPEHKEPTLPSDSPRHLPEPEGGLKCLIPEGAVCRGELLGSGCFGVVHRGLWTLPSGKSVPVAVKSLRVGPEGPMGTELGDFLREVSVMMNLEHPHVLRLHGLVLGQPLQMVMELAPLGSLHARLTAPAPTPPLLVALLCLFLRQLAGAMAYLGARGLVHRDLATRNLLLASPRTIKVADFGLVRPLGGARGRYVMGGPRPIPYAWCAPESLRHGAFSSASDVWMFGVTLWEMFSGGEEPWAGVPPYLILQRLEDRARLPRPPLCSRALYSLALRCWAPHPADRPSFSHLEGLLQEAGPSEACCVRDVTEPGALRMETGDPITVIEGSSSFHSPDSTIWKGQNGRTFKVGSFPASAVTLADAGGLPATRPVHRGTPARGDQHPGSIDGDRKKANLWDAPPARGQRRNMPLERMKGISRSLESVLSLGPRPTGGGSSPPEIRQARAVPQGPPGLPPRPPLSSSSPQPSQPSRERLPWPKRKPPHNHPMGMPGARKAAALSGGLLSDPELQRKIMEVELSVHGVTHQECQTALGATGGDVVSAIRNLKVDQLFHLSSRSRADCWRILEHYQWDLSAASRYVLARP
The note with it: 185-kinase panel; cited from earlier work.

For data set [1] the following is noted: in vivo; cited from earlier work.
Another data set concerns the target T2, PIP4K2C (Homo sapiens, UniProt Q8TBX8).
T2 sequence (Q8TBX8 1-421): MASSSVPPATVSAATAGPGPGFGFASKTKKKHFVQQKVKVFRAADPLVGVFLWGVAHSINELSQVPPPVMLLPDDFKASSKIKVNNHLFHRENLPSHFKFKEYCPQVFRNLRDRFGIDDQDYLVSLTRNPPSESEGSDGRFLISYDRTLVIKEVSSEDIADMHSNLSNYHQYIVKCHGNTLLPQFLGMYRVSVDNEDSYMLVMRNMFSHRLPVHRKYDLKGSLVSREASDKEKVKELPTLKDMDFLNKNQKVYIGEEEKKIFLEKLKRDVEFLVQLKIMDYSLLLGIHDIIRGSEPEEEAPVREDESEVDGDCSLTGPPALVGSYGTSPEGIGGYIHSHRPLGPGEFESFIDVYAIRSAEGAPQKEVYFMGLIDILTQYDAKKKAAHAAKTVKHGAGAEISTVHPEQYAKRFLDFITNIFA
The following applies: 185-kinase panel; cited from earlier work.

For another data set, the target named is T3, GAK (Homo sapiens, UniProt O14976).
T3 sequence (O14976 1-1311): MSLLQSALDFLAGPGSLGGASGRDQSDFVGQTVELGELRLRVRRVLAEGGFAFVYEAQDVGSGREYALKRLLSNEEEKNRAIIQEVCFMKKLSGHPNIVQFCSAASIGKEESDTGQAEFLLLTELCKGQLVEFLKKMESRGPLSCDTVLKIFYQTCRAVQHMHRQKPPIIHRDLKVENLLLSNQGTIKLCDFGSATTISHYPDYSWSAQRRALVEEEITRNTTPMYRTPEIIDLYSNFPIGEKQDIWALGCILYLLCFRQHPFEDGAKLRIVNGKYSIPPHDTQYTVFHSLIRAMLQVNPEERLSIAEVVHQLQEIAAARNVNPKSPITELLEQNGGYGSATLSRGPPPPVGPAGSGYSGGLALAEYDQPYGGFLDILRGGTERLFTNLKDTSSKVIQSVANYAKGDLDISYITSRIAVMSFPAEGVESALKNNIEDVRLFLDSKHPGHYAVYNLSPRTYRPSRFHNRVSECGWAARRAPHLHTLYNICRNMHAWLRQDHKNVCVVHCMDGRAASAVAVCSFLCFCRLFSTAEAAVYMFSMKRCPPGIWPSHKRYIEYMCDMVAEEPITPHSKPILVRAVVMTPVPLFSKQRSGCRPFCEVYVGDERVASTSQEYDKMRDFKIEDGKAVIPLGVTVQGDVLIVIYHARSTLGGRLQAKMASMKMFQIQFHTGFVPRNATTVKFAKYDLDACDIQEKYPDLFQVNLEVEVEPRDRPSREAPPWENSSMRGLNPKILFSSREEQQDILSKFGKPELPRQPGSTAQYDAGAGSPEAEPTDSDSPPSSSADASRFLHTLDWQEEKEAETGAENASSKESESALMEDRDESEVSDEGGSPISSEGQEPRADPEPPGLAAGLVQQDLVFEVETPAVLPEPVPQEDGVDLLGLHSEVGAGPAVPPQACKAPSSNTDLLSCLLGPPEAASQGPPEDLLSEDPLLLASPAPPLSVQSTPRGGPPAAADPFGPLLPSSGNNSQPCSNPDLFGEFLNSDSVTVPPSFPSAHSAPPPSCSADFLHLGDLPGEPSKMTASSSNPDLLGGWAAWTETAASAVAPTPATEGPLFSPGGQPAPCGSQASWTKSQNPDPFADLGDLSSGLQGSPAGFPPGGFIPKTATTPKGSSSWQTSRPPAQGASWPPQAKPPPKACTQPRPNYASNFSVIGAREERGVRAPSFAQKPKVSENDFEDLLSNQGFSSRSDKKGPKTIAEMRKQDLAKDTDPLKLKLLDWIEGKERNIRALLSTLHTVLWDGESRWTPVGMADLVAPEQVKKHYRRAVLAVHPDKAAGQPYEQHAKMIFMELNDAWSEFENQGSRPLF
The following applies: 185-kinase panel; cited from earlier work.

The target of another data set is CAMKK2 (Homo sapiens, UniProt Q96RR4). The note with it: 185-kinase panel; cited from earlier work.
In another data set the target is T4, PLK4 (Homo sapiens, UniProt O00444).
T4 sequence (O00444 1-970): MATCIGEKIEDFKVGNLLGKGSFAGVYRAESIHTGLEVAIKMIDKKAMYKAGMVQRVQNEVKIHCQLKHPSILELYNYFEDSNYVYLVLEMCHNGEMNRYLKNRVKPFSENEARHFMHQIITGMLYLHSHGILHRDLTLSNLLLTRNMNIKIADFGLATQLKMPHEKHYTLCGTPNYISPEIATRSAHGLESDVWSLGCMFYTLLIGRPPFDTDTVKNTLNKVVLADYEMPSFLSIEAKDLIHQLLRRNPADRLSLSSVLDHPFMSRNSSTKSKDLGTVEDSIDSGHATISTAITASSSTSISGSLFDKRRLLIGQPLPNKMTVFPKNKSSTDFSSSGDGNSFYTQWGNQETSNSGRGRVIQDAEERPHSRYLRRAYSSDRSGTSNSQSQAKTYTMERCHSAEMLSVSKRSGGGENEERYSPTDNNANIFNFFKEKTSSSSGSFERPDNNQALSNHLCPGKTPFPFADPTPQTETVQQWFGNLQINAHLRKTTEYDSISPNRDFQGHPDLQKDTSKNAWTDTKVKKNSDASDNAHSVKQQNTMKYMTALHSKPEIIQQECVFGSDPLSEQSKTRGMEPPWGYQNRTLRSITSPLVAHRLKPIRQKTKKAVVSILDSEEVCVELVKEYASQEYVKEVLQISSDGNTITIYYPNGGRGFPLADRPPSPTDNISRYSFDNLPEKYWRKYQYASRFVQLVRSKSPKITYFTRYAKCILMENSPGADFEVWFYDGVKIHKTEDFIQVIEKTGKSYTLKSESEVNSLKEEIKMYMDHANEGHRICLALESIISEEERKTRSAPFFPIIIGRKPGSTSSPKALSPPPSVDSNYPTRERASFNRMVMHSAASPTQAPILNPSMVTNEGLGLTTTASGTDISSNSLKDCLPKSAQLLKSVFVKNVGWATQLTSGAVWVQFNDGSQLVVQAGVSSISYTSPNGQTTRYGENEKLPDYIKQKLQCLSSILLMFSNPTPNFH
The following applies: 185-kinase panel; cited from earlier work.

Sequence of CAMKK2 (Q96RR4 whole entry, species assumed): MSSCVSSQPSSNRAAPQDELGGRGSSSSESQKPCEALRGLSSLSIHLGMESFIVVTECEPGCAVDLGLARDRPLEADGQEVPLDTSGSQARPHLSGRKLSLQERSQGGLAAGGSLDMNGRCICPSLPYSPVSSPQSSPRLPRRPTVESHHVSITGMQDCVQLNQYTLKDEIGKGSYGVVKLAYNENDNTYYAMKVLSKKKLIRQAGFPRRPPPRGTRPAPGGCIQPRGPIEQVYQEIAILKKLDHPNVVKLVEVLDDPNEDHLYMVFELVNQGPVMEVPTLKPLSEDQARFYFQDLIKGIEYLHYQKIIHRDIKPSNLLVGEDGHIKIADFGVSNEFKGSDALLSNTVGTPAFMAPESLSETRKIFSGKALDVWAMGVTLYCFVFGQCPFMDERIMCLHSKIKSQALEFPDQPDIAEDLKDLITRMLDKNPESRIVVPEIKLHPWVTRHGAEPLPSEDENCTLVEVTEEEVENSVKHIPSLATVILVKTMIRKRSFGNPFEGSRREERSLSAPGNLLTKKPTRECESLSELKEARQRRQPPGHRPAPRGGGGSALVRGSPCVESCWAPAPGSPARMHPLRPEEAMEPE

The term IC50 denotes the concentration that inhibits the measured activity by half. Regarding `COc1cc(N2CCOCC2)ccc1Nc1ncc(F)c(Nc2ccccc2NS(C)(=O)=O)n1.Cl` [CZC-25146, N-(2-(5-Fluoro-2-(2-methoxy-4-morpholinophenylamino)pyrimidin-4-ylamino)phenyl)methanesulfonamide, HCl], the concentration for half-maximal inhibition (IC50) at TNK1, on PIP4K2C, at GAK, on CAMKK2 and on PLK4 was under 300 nM each time. In addition, the oral bioavailability entry in data set [1] was “orally bioavailable”.
